# Test results published in ChEMBL document CHEMBL1138374, “Arylsulfonamides as a new class of cannabinoid CB1 receptor ligands: identification of a lead and initial SAR studies” (Bioorg Med Chem Lett, 2007).
# Legend:
# Cannabinoid receptor 1 [1] = target: T1, Cannabinoid receptor 1 (Homo sapiens, UniProt P21554); experiment: Agonist activity at human recombinant CB1 receptor expressed in CHO cells by [35S]GTP-gamma-S binding assay; format: functional, cell-based
# Cannabinoid receptor 1 [2] = target: T1, Cannabinoid receptor 1; experiment: Binding affinity to human recombinant CB1 receptor
# Mus musculus [3] = experiment: Reduction of nociception in NMRI mouse during late phase (10 to 30 mins) at 10 mg/kg, ip by formalin test; format: functional; set-up: scale not given: the % may be the effect or the level left; details: route intraperitoneal
# Mus musculus [4] = experiment: Reduction of nociception in NMRI mouse during late phase (10 to 30 mins) at 30 mg/kg, ip by formalin test; format: functional; set-up: scale not given: the % may be the effect or the level left; details: route intraperitoneal
# [5] = target: Cannabinoid receptor 1 (Mus musculus) (UniProt P47746); details: Vas deferens
# Description: Agonist activity at CB1 receptor assessed as inhibition of electrically-induced twitch contraction amplitude in mouse vas deferens
# Mus musculus [6] = experiment: Reduction of nociception in NMRI mouse during early phase (0 to 5 mins) at 80 mg/kg, ip by formalin test; format: functional; set-up: scale not given: the % may be the effect or the level left; details: route intraperitoneal
# Mus musculus [7] = experiment: Reduction of nociception in NMRI mouse during early phase (0 to 5 mins) at 90 mg/kg, ip by formalin test; format: functional; set-up: scale not given: the % may be the effect or the level left; details: route intraperitoneal
# Mus musculus [8] = experiment: Induction of hypokinesia with reduced postural tone NMRI mouse at 180 mg/kg, ip; format: organism-based; set-up: dose 180 mg/kg, route intraperitoneal; details: in vivo
# Mus musculus [9] = experiment: Reduction of nociception in NMRI mouse during early phase (0 to 5 mins) at 10 mg/kg, ip by formalin test; format: functional; set-up: scale not given: the % may be the effect or the level left; details: route intraperitoneal
# Mus musculus [10] = experiment: Reduction of nociception in NMRI mouse during early phase (0 to 5 mins) at 30 mg/kg, ip by formalin test; format: functional; set-up: scale not given: the % may be the effect or the level left; details: route intraperitoneal
# Cannabinoid receptor 2 = Cannabinoid receptor 2 (Homo sapiens, UniProt P34972); experiment: Binding affinity to CB2 receptor
# [11] = target: Cannabinoid receptor 1 (Mus musculus) (UniProt P47746); details: Vas deferens; 0.1 uM
# Description: Agonist activity at CB1 receptor assessed as inhibition of electrically-induced twitch contraction amplitude in mouse vas deferens at 0.1 uM relative to WIN-55212-2
# Mus musculus [12] = experiment: Reduction of nociception in NMRI mouse during late phase (10 to 30 mins) at 90 mg/kg, ip by formalin test; format: functional; set-up: scale not given: the % may be the effect or the level left; details: route intraperitoneal
# Mus musculus [13] = experiment: Reduction of nociception in NMRI mouse during late phase (10 to 30 mins) at 180 mg/kg, ip by formalin test; format: functional; set-up: scale not given: the % may be the effect or the level left; details: route intraperitoneal
# Mus musculus [14] = experiment: Induction of hypotonia NMRI mouse at 0.3 mg/kg, ip; format: organism-based; set-up: dose 0.3 mg/kg, route intraperitoneal; details: in vivo
# Mus musculus [15] = experiment: Reduction of nociception in ip dosed NMRI mouse during late phase (10 to 30 mins); format: functional
# Mus musculus [16] = experiment: Induction of hypokinesia NMRI mouse at 0.3 mg/kg, ip; format: organism-based; set-up: dose 0.3 mg/kg, route intraperitoneal; details: in vivo
# Description for Homo sapiens: Selectivity for CB2 receptor over human recombinant CB1 receptor
# T1 sequence (P21554 whole entry): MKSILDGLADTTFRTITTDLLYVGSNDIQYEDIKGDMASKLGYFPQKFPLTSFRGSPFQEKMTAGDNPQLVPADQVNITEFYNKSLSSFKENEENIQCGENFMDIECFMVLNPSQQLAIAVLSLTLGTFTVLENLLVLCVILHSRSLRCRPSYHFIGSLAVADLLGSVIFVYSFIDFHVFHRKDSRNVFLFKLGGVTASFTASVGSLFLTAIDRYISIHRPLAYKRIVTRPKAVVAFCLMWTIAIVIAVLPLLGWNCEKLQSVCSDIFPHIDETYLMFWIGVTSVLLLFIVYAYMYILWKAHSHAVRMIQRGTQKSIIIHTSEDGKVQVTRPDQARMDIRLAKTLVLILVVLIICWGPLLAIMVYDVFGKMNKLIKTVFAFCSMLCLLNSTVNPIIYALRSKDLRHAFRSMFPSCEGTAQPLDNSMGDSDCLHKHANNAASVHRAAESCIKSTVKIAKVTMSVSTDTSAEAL
# Sequence of Cannabinoid receptor 1 (Mus musculus) (P47746 whole entry): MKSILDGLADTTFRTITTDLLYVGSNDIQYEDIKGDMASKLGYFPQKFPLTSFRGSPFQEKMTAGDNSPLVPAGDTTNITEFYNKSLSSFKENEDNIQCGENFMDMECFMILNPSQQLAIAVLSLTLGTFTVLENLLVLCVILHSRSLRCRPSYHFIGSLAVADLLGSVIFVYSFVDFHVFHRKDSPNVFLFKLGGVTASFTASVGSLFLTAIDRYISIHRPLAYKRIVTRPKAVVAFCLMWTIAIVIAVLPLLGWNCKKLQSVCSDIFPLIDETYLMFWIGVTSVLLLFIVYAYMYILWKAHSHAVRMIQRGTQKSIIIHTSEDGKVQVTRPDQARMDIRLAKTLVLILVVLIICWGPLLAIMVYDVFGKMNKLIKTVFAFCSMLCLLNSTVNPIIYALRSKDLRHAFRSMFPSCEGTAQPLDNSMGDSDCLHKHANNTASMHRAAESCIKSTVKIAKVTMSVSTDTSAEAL
# Sequence of Cannabinoid receptor 2 (P34972 whole entry): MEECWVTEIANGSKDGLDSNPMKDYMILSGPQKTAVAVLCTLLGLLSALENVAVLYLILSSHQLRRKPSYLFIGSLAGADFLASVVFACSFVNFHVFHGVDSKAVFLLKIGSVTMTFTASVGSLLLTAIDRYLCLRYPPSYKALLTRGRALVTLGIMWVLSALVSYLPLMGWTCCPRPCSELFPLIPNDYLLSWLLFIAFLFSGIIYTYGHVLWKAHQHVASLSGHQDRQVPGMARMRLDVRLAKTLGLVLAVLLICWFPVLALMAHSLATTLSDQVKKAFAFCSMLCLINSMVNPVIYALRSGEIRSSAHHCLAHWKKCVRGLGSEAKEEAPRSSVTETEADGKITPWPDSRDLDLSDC
Structure (SMILES),EC50 (Cannabinoid receptor 1 [1]) [µM],IC50 (Cannabinoid receptor 1 [2]) [µM],further results
Cc1ccc(C(=O)O)cc1S(=O)(=O)N1CCCCC1,> 10,> 10,–
Cc1ccc(C(=O)Oc2ccccc2Br)cc1S(=O)(=O)N1CCOCC1,0.398,0.0316,–
Cc1ccc(C(=O)Oc2cccc3cccnc23)cc1S(=O)(=O)N1CCOCC1,0.0126,0.00126,–
O=C(Nc1ccc(Cl)c(S(=O)(=O)N2CCOCC2)c1)c1cccc2ccccc12,0.794,0.398,–
O=C(Oc1cccc2cccnc12)c1cccc(S(=O)(=O)N2CCCCC2)c1,0.0501,0.0158,–
Cc1ccc(NC(=O)c2ccc(C)c(S(=O)(=O)N3CCCCC3)c2)cc1,> 10,7.94,–
O=C(Oc1cccc2cccnc12)c1cccc(S(=O)(=O)N2CCCC2)c1,0.631,0.158,–
Cc1ccc(C(=O)Oc2cccc3cccnc23)cc1S(=O)(=O)N1CCCCC1,0.01,0.000794,Activity (Mus musculus [3]): -15%; Activity (Mus musculus [4]): -50%; pD2 [5]: 6.42; Activity (Mus musculus [6]): -54%; Activity (Mus musculus [7]): -53%; Activity (Mus musculus [8]): Toxic; Activity (Mus musculus [9]): -1%; Activity (Mus musculus [10]): -1%; Ki (Cannabinoid receptor 2): 0.0251 µM; inhibition [11]: 87.3%; logSI (Homo sapiens): 1; Activity (Mus musculus [12]): -71%; Activity (Mus musculus [13]): -59%
COc1ccccc1NC(=O)c1cccc(S(=O)(=O)N2CCCCC2)c1,–,> 10,–
O=C(Nc1ccc(Cl)c(S(=O)(=O)N2CCOCC2)c1)c1ccccc1,0.631,3.98,–
Nc1cccc(NC(=O)c2cccc(S(=O)(=O)N3CCCCC3)c2)c1,> 10,5.01,–
Cc1ccc(C(=O)Nc2ccccc2)cc1S(=O)(=O)N1CCCC1,> 10,6.31,–
Cc1ccc(NC(=O)c2cccc(C#N)c2)cc1S(=O)(=O)N1CCOCC1,5.01,1.58,–
Cc1ccc(C(=O)Nc2ccccc2)cc1S(=O)(=O)N1CCCCC1,> 10,3.16,–
Cc1ccc(NC(=O)c2ccc(C)c(S(=O)(=O)N3CCCCC3)c2)nc1,> 10,3.16,–
O=C(Nc1ccccc1O)c1ccc(Cl)c(S(=O)(=O)N2CCCCCC2)c1,1.26,0.2,–
Cc1ccc(C(=O)Nc2cccc(F)c2)cc1S(=O)(=O)N1CCCCC1,> 10,1.26,–
Cc1c(C(=O)c2cccc3ccccc23)c2cccc3c2n1[C@H](CN1CCOCC1)CO3 [WIN-552122],–,–,Activity (Mus musculus [14]): Toxic; ED50 (Mus musculus [15]): 0.21 mg/kg; Activity (Mus musculus [16]): Toxic
O=C(Oc1cccc2cccnc12)c1cccc(S(=O)(=O)N2CCCCCC2)c1,0.2,0.0501,–
COc1ccc(C(=O)Oc2cccc3cccnc23)cc1S(=O)(=O)N1CCOCC1,0.398,0.0398,–
O=C(Nc1ccc(Cl)c(S(=O)(=O)N2CCOCC2)c1)c1ccccc1Cl,> 10,1.58,–
COc1ccccc1OC(=O)c1ccc(C)c(S(=O)(=O)N2CCOCC2)c1,0.0631,3.16,–
Cc1ccc(C(=O)Nc2cccc3cnccc23)cc1S(=O)(=O)N1CCCCC1,6.31,1.26,–
Cc1ccc(NC(=O)c2ccccc2Oc2ccccc2)cc1S(=O)(=O)N1CCOCC1,> 10,2,–
